Read-outs that look alike come from different tables or passages of the source.
Assays:
Assay in all cases: Post-emergence action against weeds, greenhouse pot test, visual scoring
Type in all cases: in vivo
[1] = test system: Alopecurus myosuroides (ALOMY); conditions: ALOMY, read-out: % activity found; for inhibition at 4 g/ha: 4 g of ai/ha alone; for inhibition at 12 g/ha: 12 g of ai/ha alone
Procedure: (§1) Seeds or rhizome pieces of mono- and dicotyledonous harmful and useful plants were placed in peat pots (diameter 4 cm) filled with sandy loam and then covered with soil. The pots were kept in a greenhouse under optimum conditions. In addition, harmful plants encountered in paddy rice cultivation were cultivated in pots with a water level 2 cm above the soil surface.
(§2) About three weeks after the start of the cultivation, the test plants were treated at the 2- to 3-leaf stage. The herbicides, formulated as powder or liquid concentrates, were, either alone or in the combinations according to the invention, sprayed in various dosages on to the green parts of the plants using an application rate of 600 l of water/ha (converted). For further cultivation of the plants, the pots were then again kept under optimum conditions in a greenhouse.
(§3) The visual scoring of the herbicidal effects was carried out in intervals up to 21 days after the treatment. Scoring was carried out in percent in comparison to the untreated control plants. 0%=no herbicidal activity, 100%=complete herbicidal activity=complete kill.
(§4) The percentages from the treatments with the herbicides alone (=individual application) and with the combinations according to the invention (=mixtures) were employed to calculate interactions using the method of Colby. When the observed efficacies of the mixtures exceed the formal sum of the values of the tests with individual applications, they also exceed the expected value according to Colby, which is calculated using the formula below (cf. S. R. Colby; in Weeds 15 (1967) pp. 20 to 22):
(§5) • A, B=activity of components A and B in percent at a dosage of a and b g of ai/ha (=gramm of active substance per hectare), respectively. • E=expected value in % at a dosage of a+b g of ai/ha.

Setaria viridis (SETVI) = conditions: 504 h, SETVI, 21 DAT, read-out: % activity found
Procedure: as §1, §2, §3, §4, §5

Oryza sativa (ORYSA) = conditions: ORYSA, read-out: % activity found; for inhibition at 4 g/ha: 4 g of ai/ha alone; for inhibition at 12 g/ha: 12 g of ai/ha alone
Procedure: as §1, §2, §3, §4, §5

[2] = test system: Lolium multiflorum (LOLMU); conditions: LOLMU; for inhibition at 4 g/ha / inhibition at 12 g/ha: Lolium multiflorum, post-emergence, read-out: % activity found; for inhibition at 4 g/ha: 4 g of ai/ha alone; for inhibition at 12 g/ha: 12 g of ai/ha alone
Procedure: as §1, §2, §3
(§6) The percentages from the treatments with the herbicides alone (=individual application) and with the combinations according to the invention (=mixtures) were employed to calculate interactions using the method of Colby.
as §5

Viola tricolor (VIOTR) = conditions: for (7) activity found: rate (5) A-1 12
Procedure: as §1, §2, §3, §6, §5

[3] = test system: Pharbitis purpurea (PHBPU); conditions: 21 DAT
Procedure: as §1, §2, §3, §6, §5

Veronica persica (VERPE) = conditions: 21 DAT, rate (5) A-1 12
Procedure: as §1, §2, §3, §6, §5

[4] = test system: Cyperus esculentus (CYPES); conditions: CYPES, 21 DAT
Procedure: as §1, §2, §3, §6, §5

[5] = test system: Matricaria inodora (MATIN); conditions: MATIN, 21 DAT
Procedure: as §1, §2, §3, §6, §5

[6] = test system: Fallopia (ex Polygonum) convolvulus (POLCO); conditions: POLCO, 21 DAT
Procedure: as §1, §2, §3, §6, §5

Stellaria media (STEME) = conditions: 10 DAT
Procedure: as §1, §2, §3, §6, §5

[7] = test system: Triticum aestivum (TRZAS); conditions: for (7) activity found: rate (5) A-1 12; for inhibition at 4 g/ha / inhibition at 12 g/ha: Triticum aestivum, post-emergence, read-out: % activity found; for inhibition at 4 g/ha: 4 g of ai/ha alone; for inhibition at 12 g/ha: 12 g of ai/ha alone
Procedure: as §1, §2, §3, §6, §5

Avena fatua (AVEFA) = conditions: AVEFA; for inhibition at 4 g/ha / inhibition at 12 g/ha: Avena fatua, post-emergence, read-out: % activity found; for inhibition at 4 g/ha: 4 g of ai/ha alone; for inhibition at 12 g/ha: 12 g of ai/ha alone
Procedure: as §1, §2, §3, §6, §5

Zea mays (ZEAMX) = conditions: ZEAMX; for inhibition at 4 g/ha / inhibition at 12 g/ha: Zea mays, post-emergence, read-out: % activity found; for inhibition at 4 g/ha: 4 g of ai/ha alone; for inhibition at 12 g/ha: 12 g of ai/ha alone
Procedure: as §1, §2, §3, §6, §5

[8] = test system: Abuthilon theophrasti (ABUTH); conditions: 21 DAT, rate (5) A-1 12
Procedure: as §1, §2, §3, §6, §5

Q: Which inhibition at 4 g/ha ([1]; 240 h, 10 DAT) does the source give for COc1nc(OC)nc(C(=O)c2cccc(F)c2N(C)S(=O)(=O)C(F)F)n1 [A-1] here?
A: 40%

Q: And the inhibition at 12 g/ha ([1]; 240 h, 10 DAT)?
A: 40%

Q: And the inhibition at 4 g/ha ([1]; 504 h, 21 DAT)?
A: 40%

Q: What about the inhibition at 12 g/ha ([1]; 504 h, 21 DAT) of the same molecule?
A: 50%

Q: What about the inhibition at 4 g/ha (Setaria viridis (SETVI); 4 g of ai/ha alone) of the same molecule?
A: 0%

Q: And the inhibition at 12 g/ha (Setaria viridis (SETVI); 12 g of ai/ha alone)?
A: 20%

Q: What about the inhibition at 4 g/ha (Oryza sativa (ORYSA); 240 h, 10 DAT) of the same molecule?
A: 10%

Q: And the inhibition at 12 g/ha (Oryza sativa (ORYSA); 240 h, 10 DAT)?
A: 10%

Q: And the inhibition at 4 g/ha (Oryza sativa (ORYSA); 504 h, 21 DAT)?
A: 0%

Q: What about the inhibition at 12 g/ha (Oryza sativa (ORYSA); 504 h, 21 DAT) of the same molecule?
A: 10%

Q: What about the “(7) activity found” value ([2]; 10 DAT, rate (5) A-1 4) of the same molecule?
A: 0%

Q: What about the “(7) activity found” value ([2]; 10 DAT, rate (5) A-1 12) of the same molecule?
A: 10%

Q: And the inhibition at 4 g/ha ([2]; 240 h, 10 DAT)?
A: 0%

Q: And the inhibition at 12 g/ha ([2]; 240 h, 10 DAT)?
A: 10%

Q: And the inhibition at 4 g/ha ([2]; 504 h, 21 DAT)?
A: 0%

Q: And the inhibition at 12 g/ha ([2]; 504 h, 21 DAT)?
A: 10%

Q: And the “(7) activity found” value (Viola tricolor (VIOTR); 10 DAT)?
A: 20%

Q: And the “(7) activity found” value (Viola tricolor (VIOTR); 21 DAT)?
A: 10%

Q: And the inhibition at 4 g/ha (Viola tricolor (VIOTR); Viola tricolor, post-emergence, 504 h, 21 DAT, 4 g of ai/ha alone, read-out: % activity found)?
A: 0%

Q: What about the inhibition at 12 g/ha (Viola tricolor (VIOTR); Viola tricolor, post-emergence, 504 h, 21 DAT, 12 g of ai/ha alone, read-out: % activity found) of the same molecule?
A: 10%

Q: What about the “(7) activity found” value ([3]; rate (5) A-1 4) of the same molecule?
A: 60%

Q: And the “(7) activity found” value ([3]; rate (5) A-1 12)?
A: 65%

Q: And the “(7) activity found” value (Veronica persica (VERPE))?
A: 40%

Q: And the “(7) activity found” value ([4]; rate (5) A-1 4)?
A: 80%

Q: What about the “(7) activity found” value ([4]; rate (5) A-1 12) of the same molecule?
A: 80%

Q: And the “(7) activity found” value ([4]; rate (5) A-1 12 (Table 85))?
A: 80%

Q: What about the inhibition at 4 g/ha ([4]; Cyperus esculentus, post-emergence, 504 h, 4 g of ai/ha alone, read-out: % activity found) of the same molecule?
A: 80%

Q: And the inhibition at 12 g/ha ([4]; Cyperus esculentus, post-emergence, 504 h, 12 g of ai/ha alone, read-out: % activity found)?
A: 80%

Q: What about the “(7) activity found” value ([5]; rate (5) A-1 4) of the same molecule?
A: 50%

Q: What about the “(7) activity found” value ([5]; rate (5) A-1 12) of the same molecule?
A: 60%

Q: And the inhibition at 4 g/ha ([5]; Tripleurospermum inodorum, post-emergence, 504 h, 4 g of ai/ha alone, read-out: % activity found)?
A: 50%

Q: What about the inhibition at 12 g/ha ([5]; Tripleurospermum inodorum, post-emergence, 504 h, 12 g of ai/ha alone, read-out: % activity found) of the same molecule?
A: 60%

Q: What about the inhibition at 4 g/ha ([6]; Fallopia convolvulus, post-emergence, 504 h, 4 g of ai/ha alone, read-out: % activity found) of the same molecule?
A: 75%

Q: And the inhibition at 12 g/ha ([6]; Fallopia convolvulus, post-emergence, 504 h, 12 g of ai/ha alone, read-out: % activity found)?
A: 70%

Q: What about the “(7) activity found” value ([6]; rate (5) A-1 4) of the same molecule?
A: 75%

Q: What about the “(7) activity found” value ([6]; rate (5) A-1 12) of the same molecule?
A: 70%

Q: What about the “(7) activity found” value (Stellaria media (STEME); rate (5) A-1 4) of the same molecule?
A: 70%

Q: And the “(7) activity found” value (Stellaria media (STEME); rate (5) A-1 12)?
A: 70%

Q: And the “(7) activity found” value ([7]; 10 DAT)?
A: 0%

Q: And the “(7) activity found” value ([7]; 21 DAT)?
A: 0%

Q: And the inhibition at 4 g/ha ([7]; 240 h, 10 DAT)?
A: 0%

Q: And the inhibition at 12 g/ha ([7]; 240 h, 10 DAT)?
A: 0%

Q: What about the inhibition at 4 g/ha ([7]; 504 h, 21 DAT) of the same molecule?
A: 0%

Q: And the inhibition at 12 g/ha ([7]; 504 h, 21 DAT)?
A: 0%

Q: What about the “(7) activity found” value (Avena fatua (AVEFA); 21 DAT, rate (5) A-1 4) of the same molecule?
A: 10%

Q: What about the “(7) activity found” value (Avena fatua (AVEFA); 21 DAT, rate (5) A-1 12) of the same molecule?
A: 30%

Q: And the inhibition at 4 g/ha (Avena fatua (AVEFA); 240 h, 10 DAT)?
A: 40%

Q: And the inhibition at 12 g/ha (Avena fatua (AVEFA); 240 h, 10 DAT)?
A: 50%

Q: And the inhibition at 4 g/ha (Avena fatua (AVEFA); 504 h, 21 DAT)?
A: 10%

Q: What about the inhibition at 12 g/ha (Avena fatua (AVEFA); 504 h, 21 DAT) of the same molecule?
A: 30%

Q: And the “(7) activity found” value (Zea mays (ZEAMX); 10 DAT, rate (5) A-1 4)?
A: 0%

Q: And the “(7) activity found” value (Zea mays (ZEAMX); 10 DAT, rate (5) A-1 12)?
A: 0%

Q: And the “(7) activity found” value (Zea mays (ZEAMX); 21 DAT, rate (5) A-1 4)?
A: 0%

Q: What about the “(7) activity found” value (Zea mays (ZEAMX); 21 DAT, rate (5) A-1 4 (Table 80)) of the same molecule?
A: 0%

Q: And the “(7) activity found” value (Zea mays (ZEAMX); 21 DAT, rate (5) A-1 12)?
A: 0%

Q: And the “(7) activity found” value (Zea mays (ZEAMX); 21 DAT, rate (5) A-1 12 (Table 80))?
A: 0%

Q: And the inhibition at 4 g/ha (Zea mays (ZEAMX); 240 h, 10 DAT)?
A: 0%

Q: And the inhibition at 12 g/ha (Zea mays (ZEAMX); 240 h, 10 DAT)?
A: 0%

Q: And the inhibition at 4 g/ha (Zea mays (ZEAMX); 504 h, 21 DAT)?
A: 0%

Q: And the inhibition at 12 g/ha (Zea mays (ZEAMX); 504 h, 21 DAT)?
A: 0%

Q: What about the “(7) activity found” value [8] of the same molecule?
A: 85%

From patent publication US20100075852A1, “HERBICIDE COMBINATION COMPRISING DIMETHOXYTRIAZINYL-SUBSTITUTED DIFLUOROMETHANESULFONYLANILIDES” (BAYER CROPSCIENCE AG, priority 2008, published 2010)
